The values below come from publication PMC8399901, “Effects of a Peripherally Restricted Hybrid Inhibitor of CB1 Receptors and iNOS on Alcohol Drinking Behavior and Alcohol-Induced Endotoxemia” (Molecules, 2021).

Series [1] has as its system CB1R. Conditions: cited from earlier work.
In series [2] the target is T1, CB1R (Mus musculus, UniProt P47746).
T1 construct: from tissue; host or cells: living C57BL/6J mice (whole animal; brain and peripheral tissues)
The series is described as follows: Drinking-in-the-dark voluntary ethanol intake (20% ethanol, 4 h). In kind it is in vivo. Conditions: for alcohol drinking after oral gavage: wild-type/C57BL/6J mice, oral gavage day 4 (rimonabant 10 mg/kg; JD5037 3 mg/kg; S-MRI-1867 3, 10 mg/kg; R-MRI-1867 10 mg/kg). How it is done: (§1) Drugs were applied in a volume of 1 μL over the course of 2 min via 33 g internal injector (P1 Technologies, Roanoke, VA, USA) connected with the 2 µL precision glass Hamilton syringe (USA) by a PE-20 tubing (Fisher Scientific, Hampton, NH, USA). The infusion rate and volume were controlled through the use of the syringe pump (model PHD 22/2000, Harvard Apparatus, Cambridge, MA, USA). Following 2 min infusion, injectors were left in place for additional 3 min to allow a passive diffusion of drugs into the tissue.
The procedure was performed as described, with modifications. Mice were individually housed and acclimated to the room for 5–7 days before testing and randomly assigned to treatment groups. Starting 3 h into the dark cycle, water bottles were replaced with 20% ethanol in 25 × 100 mm glass tubes fitted with metal sippers, Access to the ethanol solution was limited to 4 h every day. […] Immediately after the drinking session, mice were deeply anesthetized with isoflurane. Blood was collected by traumatic avulsion of the orbital globe and kept for 10 min at room temperature in Eppendorf tubes followed by centrifugation at 3000× g for 10 min at 4 °C. Serum was collected and kept frozen in sealed vials at −80 °C until analysis.

A further series deals with T2, iNOS (Mus musculus, UniProt P29477).
T2 construct: from tissue; host or cells: living C57BL/6J mice (whole animal)
The series is described as follows: Serum endotoxin in portal vein after acute ethanol intoxication. In kind it is in vivo. Conditions: 10 mg/kg oral gavage 30 min before 6 g/kg ethanol intragastric. How it is done: The acute intoxication was performed on 8-week-old C57BL/6J mice as developed by, with modifications. […] The animals were fasted overnight. On the day of the experiment, they were transferred to the procedure room and allowed to acclimate to the new environment for 2 h while remaining in their home cages. Animals were divided into six treatment groups. Each mouse received S-MRI-1867 10 mg/kg or R-MRI-1867 10 mg/kg or vehicle by oral gavage, followed 6 g/kg ethanol (30% w/v) or saline by the same administration route 30 min later. Mice were anaesthetized by isoflurane 90 min later and sacrificed for blood withdrawal and tissue collection. To determine endotoxin levels, blood was drawn aseptically from the portal vein without anticoagulant and clotted for 30 min at room temperature. Samples were then centrifuged at 2000× g for 15 min at room temperature. Serum was pipetted off aseptically into new sterile vials and kept frozen at −80 °C until analysis. For the collection of tissue specimens, the entire alimentary tract was removed and cleaned from the mesentery from mice treated with S-MRI-1867 and saline. Stomach and ~5 cm segments of duodenum, jejunum, ileum, and colon were dissected out, flushed three times with 20 mL ice-cold PBS, and kept in −80 °C freezer till analysis.
Serum samples were thawed and diluted 1:5 with sterile water. […]

For series [3], the target named is T1, CB1R. The experiment in a line: Two-bottle free-choice alcohol preference test (15% ethanol). Conditions: for alcohol preference and intake: daily oral gavage days 6–10 (S-MRI-1867 3, 10 mg/kg; R-MRI-1867 10 mg/kg), male C57BL/6J mice. Format: in vivo. Here is the method: The procedure was performed as described, with modifications. Animals were individually housed and acclimated to the paradigm for 5–7 days by having access to two identical water bottles and handled daily to minimize the stress associated with drug testing. Animals were first subjected to a gradual increase in ethanol concentration in a drinking bottle (3%, 6%, 9%, 12%, 15%), while the other bottle contained water. The position of the bottles was changed every day, and alcohol and water bottles were replaced every 4 days. Once alcohol concentration reached 15%, animals remained on the paradigm for 10 days. Starting on day 2, mice received vehicle by oral gavage for 4 days, followed by a daily treatment with the global or peripheral CB1 antagonist (S-MRI-1867 1, 3, 10 mg/kg; R-MRI-1867 10 mg/kg,) or vehicle (control group) for another 5 days, one hour before the dark period. All animals were sacrificed for blood and tissue collection 12–16 h after treatment.

The target of series [4] is T1, CB1R. The experiment in a line: Elevated plus maze test of anxiety-related behavior. In kind it is in vivo. Conditions: 1 µg i.c.v., tested 1 h later. How it is done:
as §1
Anxiety-related behavior was assessed using the elevated plus maze (EPM) test as described, with modifications. C57BL/6J mice were allowed to acclimate in their home cages for 2 h prior to the procedure. Animals received i.c.v infusion of JD5037 1 µg or vehicle and were tested in the EPM one hour later.
Mice were given 5 min to explore an elevated platform (72 cm above the floor) consisting of two opposing open and closed arms (each 30 × 5 cm) crossing each other. Illumination in the open and closed arms was 20 and 90 Lux, respectively. Mice were placed individually in the center of the platform (5 × 5 cm) facing an open arm. The behavior of each mouse was monitored by a computer-assisted video tracking system EthoVision XT (Noldus, Leesburg, VA, USA). The tested categories include total distance (cm) and average velocity (cm/s) of the run in the entire maze, cumulative duration (% of total time) spent in closed and open arms, number of entries into each closed and open arm of the maze (in-zone frequency). Arm entries were defined as crossing of the center point (located at approximately two thirds of the mouse body) into the arm. Number of entries, time spent in the open or closed arms, and distance travelled were measured by an automated HindSight software system (Hindsight, version 1.4, Hindsight Software Solutions Inc., Frisco, TX, USA).

Series [5] deals with T1, CB1R. Set-up: method as in PMID 31105045. Conditions: cited from earlier work.
Series [6] addresses T1, CB1R. The experiment in a line: CP 55,940-induced hypothermia in mice. Format: in vivo. Conditions: CP55,940 0.1–3 mg/kg i.p. How it is done:
as §1
(§2) Catalepsy was assessed using the bar test described with modifications. Mice were removed from home cages and their forepaws were placed on a horizontal stainless-steel rod, 0.5 cm in diameter, positioned 3.5 cm above the bench surface. […] The arbitrary cutoff time for cataleptic mice was 60 s. Hypothermia was then evaluated by measuring core body temperature with a rectal probe (Ellab Inc., Denver, CO, USA).
(§3) To determine a working range of CP 55,940 doses that induce catalepsy and hypothermia through CB1R, a dose–response curve for CP 55,940 was constructed first. Pharmacologically naïve Cnr1^−/− and wild-type littermates were injected with increasing doses of CP 55,940 (0.1, 0.3, 1, and 3 mg/kg; i.p.) at 30 min intervals. Hypothermia and catalepsy tests were performed every 30 min before ordering the next dose of CP 55,940.

Series [7] addresses T1, CB1R. The series is described as follows: CP 55,940-induced catalepsy (bar test) in mice. Format: in vivo. Conditions: CP55,940 0.1–3 mg/kg i.p. How it is done: as §1, §2, §3
The mark [8] stands for this setting: CB1R-deficient (Cnr1−/−) mice, apart from the highest dose (3 mg/kg).
Setting [9] is: wild-type mice, cumulative at 30 min intervals.

T1 sequence (P47746 whole entry): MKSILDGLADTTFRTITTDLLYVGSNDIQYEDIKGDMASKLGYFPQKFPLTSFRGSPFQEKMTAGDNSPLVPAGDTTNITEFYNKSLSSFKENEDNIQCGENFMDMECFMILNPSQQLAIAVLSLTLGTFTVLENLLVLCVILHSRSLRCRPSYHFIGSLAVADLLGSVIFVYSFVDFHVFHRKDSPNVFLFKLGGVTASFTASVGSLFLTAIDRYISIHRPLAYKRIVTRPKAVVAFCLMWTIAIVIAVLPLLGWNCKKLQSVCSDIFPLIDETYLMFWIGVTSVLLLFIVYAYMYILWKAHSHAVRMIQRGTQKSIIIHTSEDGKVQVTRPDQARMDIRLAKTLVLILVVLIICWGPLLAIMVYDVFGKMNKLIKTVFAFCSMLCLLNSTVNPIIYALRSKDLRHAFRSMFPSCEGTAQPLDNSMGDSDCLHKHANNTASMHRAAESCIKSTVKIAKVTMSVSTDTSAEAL

Consider `C/C(N)=N/C(=N\S(=O)(=O)c1ccc(C(F)(F)F)cc1)N1C[C@@H](c2ccccc2)C(c2ccc(Cl)cc2)=N1` [R-MRI-1867], for which the CB1R activity result in the series on CB1R [1] was “CB1R inactive”. Moreover, the “alcohol drinking after oral gavage” value on CB1R [2] is “unaffected”. The “alcohol-induced increase in plasma levels of LPS (portal serum endotoxin)” value on iNOS was “similarly inhibited”. The “alcohol preference and intake” value at CB1R [3] is reported as “remained unaffected”.
`CC(N)=NC(=NS(=O)(=O)c1ccc(C(F)(F)F)cc1)N1C[C@H](c2ccccc2)C(c2ccc(Cl)cc2)=N1` [S-MRI-1867]: the CB1R inhibitory potency result in the series on CB1R [1] is on record as “nanomolar”. Besides, the “alcohol drinking after oral gavage” value at CB1R [2] is “inhibited alcohol consumption in a dose-dependent fashion”. The “alcohol-induced increase in plasma levels of LPS (portal serum endotoxin)” value on iNOS was “similarly inhibited”. Further, the “alcohol preference and intake” value at CB1R [3] is “effective in reducing alcohol preference and intake”. Moreover, the “total liquid consumption or food intake” value on CB1R [3] (daily oral gavage days 6–10, S-MRI-1867 3, 10 mg/kg) is on record as “without affecting”.
In the case of `CC(C)[C@H](N=C(NS(=O)(=O)c1ccc(Cl)cc1)N1C[C@H](c2ccccc2)C(c2ccc(Cl)cc2)=N1)C(N)=O` [JD5037], the “velocity in elevated plus maze” value on CB1R [4] (5 min run, n = 6, mean ± s.e.m., vehicle 4.0 ± 0.4) was determined as 2.4 ± 0.4 cm/s. In addition, the “total distance traveled in elevated plus maze” value on CB1R [4] (5 min run, n = 6, mean ± s.e.m., vehicle 1189.0 ± 111.6) amounted to 740.5 ± 130.6 cm. Also, at CB1R [4] (vs vehicle), the “movement between the two closed arms (frequency)” value is given as “moved less frequently between the two closed arms”; the “open arm entries and exploration” value is reported as “failure to enter open arms”; the “time spent in closed arms” value is given as “stayed much longer in the closed arms”. Also, the “alcohol drinking after i.c.v. infusion” value at CB1R [2] (i.c.v. on day 4, one hour before dark period (rimonabant 2 µg; JD5037 1 µg)) is listed as “ineffective in reducing alcohol drinking”. In addition, the “alcohol drinking after oral gavage” value on CB1R [2] is listed as “effectively reduced alcohol drinking”. In addition, at CB1R [5], the “effect on alcohol drinking in CB1R-deficient mice” value is “did not occur in CB1R-deficient mice”.
On to `CCCCCCC(C)(C)c1ccc([C@@H]2C[C@H](O)CC[C@H]2CCCO)c(O)c1` [CP55,940], for which the “decrease in body temperature (hypothermia)” value is reported as “completely insensitive to treatment” at CB1R [6] (setting [8]) and “dose-dependent decrease in body temperature” on CB1R [6] (setting [9]). Also, the cataleptic behavior result on CB1R [7] (setting [8]) is on record as “completely insensitive to treatment”; on CB1R [7] (setting [9]), “cataleptic behavior”.
